Results from patent US8709434B2, “Compositions for inhibiting NADPH oxidase activity” (PCB Associates, Inc., priority 2006, dated 2014).

What was measured:
NADPH oxidase [1] = experiment: NADPH-induced superoxide production by cellular NADPH oxidase, lucigenin chemiluminescence, human aortic endothelial cells; type: cell-based; settings: for inhibition of NADPH oxidase superoxide production: 300 nM to 20 μM for 1 h
Experimental: (§1) Human cell cultures derived from aortic endothelium were incubated with NADPH to induce superoxide production by cellular NADPH oxidase. Superoxide production was quantified by lucigenin chemiluminescence. Lucigenin is a specific detector of superoxide. […] Phycocyanobilin (PCB, FIG. 1A) or biliverdin (BVD, FIG. 1B) were added to the NADPH-treated cell cultures in concentrations ranging from 300 nM to 20 μM. Biliverdin is another known inhibitor of NADPH oxidase.
(§2) Human aortic endothelial cells were purchased from Clonetics (East Rutherford, N.J.). The endothelial cell were cultured in endothelial cell basal medium (Clonetics) supplemented with hFGF-B, VEGF, IGF-1, ascorbic acid hEGF, hydrocortisone and 2% fetal calf serum. The cells from 2nd to 5th passages were used in the experiments. Cellular production of superoxide anion was determined by the lucigenin method. For the experiments, cells were detached with trypsin/EDTA and resuspended in modified HEPES buffer containing 140 mM NaCl, 5 mM KCl, 0.8 mM MgCl2, 1.8 mM CaCl2, 1 mM Na2HPO4, 25 mM HEPES, and 1% glucose (pH7.2), and incubated with or without various concentrations of phycocyanobilin (PCB) or biliverdin (BVD) from 300 nM to 20 μM for 1 h. Immediately before recording, NADPH (100 μM) and dark-adapted lucigenin (5 μM) were added to cell suspension. Light emission was recorded every minute for 20 min and was expressed as mean arbitrary light unit/min. Experiments were performed in triplicate. In experiments with inhibition of NAD(P)H oxidase, diphenylene iodonuim cloride (DPI, 10^−5 M), an inhibitor of NAD(P)H oxidase, was added 10 min before NADPH addition and recording of chemiluminescence. This is the first experiment to see the effect of purified phycocyanobilin on NADPH oxidase activity using human aortic endothelial cells.

NADPH oxidase [2] = experiment: NADPH-induced superoxide production by cellular NADPH oxidase, lucigenin chemiluminescence, human aortic smooth muscle cells; type: cell-based; settings: for inhibition of NADPH oxidase superoxide production: 300 nM to 20 μM for 1 h
Experimental: as §1, with “smooth muscle” for “endothelium”, “2A)” for “1A)”, “2B)” for “1B)”
as §2, with “aortic smooth muscle” for “aortic endothelial”, “The smooth muscle cells” for “The endothelial cell”, “in a Smooth Muscle Cell Growth Medium” for “in endothelial cell basal medium”, “(Clonetics) containing 5%” for “(Clonetics) supplemented with hFGF-B, VEGF, IGF-1, ascorbic acid hEGF, hydrocortisone and 2%”

NADPH oxidase [3] = experiment: NADPH-induced superoxide production by cellular NADPH oxidase, lucigenin chemiluminescence, human renal mesangial cells; type: cell-based; settings: for inhibition of NADPH oxidase superoxide production: 300 nM to 20 μM for 1 h
Experimental: as §1, with “renal mesangial tissue” for “aortic endothelium”, “3A)” for “1A)”, “3B)” for “1B)”
as §2, with “mesangial” for “aortic endothelial”, “[…] cells” for “endothelial cell”, “a Mesangial Cell Growth Medium” for “endothelial cell basal medium”, “containing 5%” for “supplemented with hFGF-B, VEGF, IGF-1, ascorbic acid hEGF, hydrocortisone and 2%”, “chemiluminescence.” for “chemiluminescence. This is the first experiment to see the effect of purified phycocyanobilin on NADPH oxidase activity using human aortic endothelial cells.”

[4] = compared with bilirubin; cited from earlier work
[5] = oral administration, compared with bilirubin; cited from earlier work
[6] = mice, concurrent administration; cited from earlier work
[7] = rats; cited from earlier work
[8] = oral, mice and rats, dose range 50-300 mg/kg/day; cited from earlier work
[9] = feeding to cholesterol-fed hamsters; cited from earlier work
[10] = mice, oral pre-treatment; cited from earlier work
[11] = DPI 10^−5 M added 10 min before NADPH (100 μM)

c1ccc2c(c1)[I+]c1ccccc1-2 [Diphenyleneiodonium, diphenylene iodonuim cloride]
inhibition of the excess superoxide production induced by added NADPH (NADPH oxidase [1]; [11]): completely inhibit | inhibition of the excess superoxide production induced by added NADPH (NADPH oxidase [2]; [11]): completely inhibit | inhibition of the excess superoxide production induced by added NADPH (NADPH oxidase [3]; [11]): completely inhibit

C=CC1=C(C)/C(=C/C2=NC(=C\c3[nH]c(/C=C4\NC(=O)C(C)=C4C=C)c(C)c3CCC(=O)O)/C(CCC(=O)O)=C2C)NC1=O [biliverdin]
inhibition of NADPH oxidase superoxide production (NADPH oxidase [1]): dose-dependent inhibition | inhibition of NADPH oxidase superoxide production (NADPH oxidase [2]): dose-dependent inhibition | inhibition of NADPH oxidase superoxide production (NADPH oxidase [3]): dose-dependent inhibition | solubility [4]: far more soluble than bilirubin | bioavailability [5]: greater bioavailability than bilirubin | colitis induced with oral dextran sodium sulfate [6]: substantially ameliorated | ischemia-reperfusion damage of transplanted organs [7]: ameliorates the ischemia-reperfusion damage | rejection of cardiac or renal allografts [7]: helps to prevent the rejection

phycocyanin
anti-inflammatory effects [8]: dose-dependent anti-inflammatory effects | production of arterial fatty streaks [9]: inhibit the production of arterial fatty streaks quite markedly | endotoxin-induced shock (severe hypotension and death) [10]: considerable ameliorated

phycocyanobilin
inhibition of NADPH oxidase superoxide production (NADPH oxidase [1]): dose-dependent inhibition | inhibitory effect on NADPH oxidase activity compared with DPI (NADPH oxidase [1]; 20 μM): equivalent to that of DPI | inhibition of NADPH oxidase superoxide production (NADPH oxidase [2]): dose-dependent inhibition | inhibitory effect on NADPH oxidase activity compared with DPI (NADPH oxidase [2]; 20 μM): equivalent to that of DPI | inhibition of NADPH oxidase superoxide production (NADPH oxidase [3]): dose-dependent inhibition | inhibitory effect on NADPH oxidase activity compared with DPI (NADPH oxidase [3]; 20 μM): less than that of DPI, but was statistically significant
